One block for each compound: values may come before it.
Assays:
Settings in all cases: binder
[1] = target: BIKE (Homo sapiens, UniProt Q9NSY1)
[2] = target: BRAF (Homo sapiens, UniProt P15056)
[3] = target: T1, CASK (Homo sapiens, UniProt O14936)
T1 sequence (O14936 1-926): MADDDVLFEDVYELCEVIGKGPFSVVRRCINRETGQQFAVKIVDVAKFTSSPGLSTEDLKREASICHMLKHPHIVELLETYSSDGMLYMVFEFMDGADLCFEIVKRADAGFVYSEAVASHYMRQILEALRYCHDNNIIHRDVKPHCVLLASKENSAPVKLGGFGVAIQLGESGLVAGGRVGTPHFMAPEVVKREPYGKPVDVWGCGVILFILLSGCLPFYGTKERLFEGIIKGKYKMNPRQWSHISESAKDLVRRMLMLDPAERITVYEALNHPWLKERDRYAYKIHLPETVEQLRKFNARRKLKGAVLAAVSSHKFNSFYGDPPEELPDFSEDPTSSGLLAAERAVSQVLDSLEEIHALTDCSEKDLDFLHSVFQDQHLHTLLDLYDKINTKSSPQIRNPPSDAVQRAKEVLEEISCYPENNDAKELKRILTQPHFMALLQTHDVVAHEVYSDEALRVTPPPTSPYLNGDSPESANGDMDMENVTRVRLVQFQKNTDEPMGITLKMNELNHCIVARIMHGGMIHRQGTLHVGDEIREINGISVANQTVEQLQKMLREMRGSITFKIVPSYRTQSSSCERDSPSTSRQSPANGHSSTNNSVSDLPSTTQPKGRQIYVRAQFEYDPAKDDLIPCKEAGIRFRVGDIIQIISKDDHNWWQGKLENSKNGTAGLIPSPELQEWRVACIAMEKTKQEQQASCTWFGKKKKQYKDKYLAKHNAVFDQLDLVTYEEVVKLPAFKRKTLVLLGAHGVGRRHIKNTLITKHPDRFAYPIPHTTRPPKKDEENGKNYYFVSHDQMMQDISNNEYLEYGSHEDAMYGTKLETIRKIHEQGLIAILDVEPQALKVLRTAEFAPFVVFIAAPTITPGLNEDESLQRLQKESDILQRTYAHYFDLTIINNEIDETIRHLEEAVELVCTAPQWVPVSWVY

[4] = target: CK2a1 (Homo sapiens, UniProt P68400)
[5] = target: CaMK2d (Homo sapiens, UniProt Q13557)
[6] = target: DAPK3 (Homo sapiens, UniProt O43293)
[7] = target: FGFR2 (Homo sapiens, UniProt P21802)
[8] = target: HIPK2 (Homo sapiens, UniProt Q9H2X6)
[9] = target: LOK (Homo sapiens, UniProt O94804)
[10] = target: T2, MAP2K4 (Homo sapiens, UniProt P45985)
T2 sequence (P45985 1-399): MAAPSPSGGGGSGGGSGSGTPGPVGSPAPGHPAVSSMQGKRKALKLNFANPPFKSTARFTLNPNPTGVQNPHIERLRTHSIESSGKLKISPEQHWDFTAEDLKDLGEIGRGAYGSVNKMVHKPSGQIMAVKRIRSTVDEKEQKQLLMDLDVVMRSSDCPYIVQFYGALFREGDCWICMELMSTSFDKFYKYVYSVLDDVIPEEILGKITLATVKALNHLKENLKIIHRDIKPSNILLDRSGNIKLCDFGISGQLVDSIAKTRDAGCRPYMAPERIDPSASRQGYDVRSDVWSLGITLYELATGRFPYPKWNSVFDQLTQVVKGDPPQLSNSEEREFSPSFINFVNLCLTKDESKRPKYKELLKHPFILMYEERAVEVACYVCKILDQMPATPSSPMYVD

[11] = target: MRCKa (Homo sapiens, UniProt Q5VT25)
[12] = target: PCTAIRE1 (Homo sapiens, UniProt Q00536)

Chain of FGFR2 (P21802 whole entry): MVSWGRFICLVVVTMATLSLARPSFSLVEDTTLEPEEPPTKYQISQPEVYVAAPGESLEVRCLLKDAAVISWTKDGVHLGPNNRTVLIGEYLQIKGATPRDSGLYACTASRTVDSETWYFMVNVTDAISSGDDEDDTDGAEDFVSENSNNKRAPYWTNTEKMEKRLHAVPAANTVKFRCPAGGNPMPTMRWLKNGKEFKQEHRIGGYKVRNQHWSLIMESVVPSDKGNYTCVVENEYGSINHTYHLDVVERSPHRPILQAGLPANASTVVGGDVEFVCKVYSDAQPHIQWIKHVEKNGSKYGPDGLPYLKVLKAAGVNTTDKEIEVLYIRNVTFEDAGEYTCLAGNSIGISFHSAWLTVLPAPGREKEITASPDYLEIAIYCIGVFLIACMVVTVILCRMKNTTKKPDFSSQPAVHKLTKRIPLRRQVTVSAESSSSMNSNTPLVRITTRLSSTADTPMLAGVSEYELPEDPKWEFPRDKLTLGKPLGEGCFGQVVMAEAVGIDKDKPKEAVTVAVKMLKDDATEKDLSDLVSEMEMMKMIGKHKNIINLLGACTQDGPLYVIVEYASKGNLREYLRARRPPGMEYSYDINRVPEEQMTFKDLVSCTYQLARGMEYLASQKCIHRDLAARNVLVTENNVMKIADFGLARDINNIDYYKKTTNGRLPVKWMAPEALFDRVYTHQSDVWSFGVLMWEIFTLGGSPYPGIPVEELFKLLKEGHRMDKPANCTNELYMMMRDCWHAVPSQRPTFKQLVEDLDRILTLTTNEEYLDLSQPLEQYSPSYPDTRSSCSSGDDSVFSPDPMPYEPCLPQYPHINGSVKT
Chain of CK2a1 (P68400 whole entry): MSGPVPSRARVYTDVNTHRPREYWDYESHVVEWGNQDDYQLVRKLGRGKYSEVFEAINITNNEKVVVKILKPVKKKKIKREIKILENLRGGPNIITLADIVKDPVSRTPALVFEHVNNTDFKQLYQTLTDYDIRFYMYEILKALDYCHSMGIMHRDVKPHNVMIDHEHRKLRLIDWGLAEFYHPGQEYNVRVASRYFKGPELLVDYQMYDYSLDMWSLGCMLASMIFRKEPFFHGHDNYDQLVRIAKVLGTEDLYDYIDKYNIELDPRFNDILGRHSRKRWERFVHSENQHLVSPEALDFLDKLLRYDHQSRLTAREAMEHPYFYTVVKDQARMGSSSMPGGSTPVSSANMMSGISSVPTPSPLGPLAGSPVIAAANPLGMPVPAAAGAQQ
Chain of BRAF (P15056 whole entry): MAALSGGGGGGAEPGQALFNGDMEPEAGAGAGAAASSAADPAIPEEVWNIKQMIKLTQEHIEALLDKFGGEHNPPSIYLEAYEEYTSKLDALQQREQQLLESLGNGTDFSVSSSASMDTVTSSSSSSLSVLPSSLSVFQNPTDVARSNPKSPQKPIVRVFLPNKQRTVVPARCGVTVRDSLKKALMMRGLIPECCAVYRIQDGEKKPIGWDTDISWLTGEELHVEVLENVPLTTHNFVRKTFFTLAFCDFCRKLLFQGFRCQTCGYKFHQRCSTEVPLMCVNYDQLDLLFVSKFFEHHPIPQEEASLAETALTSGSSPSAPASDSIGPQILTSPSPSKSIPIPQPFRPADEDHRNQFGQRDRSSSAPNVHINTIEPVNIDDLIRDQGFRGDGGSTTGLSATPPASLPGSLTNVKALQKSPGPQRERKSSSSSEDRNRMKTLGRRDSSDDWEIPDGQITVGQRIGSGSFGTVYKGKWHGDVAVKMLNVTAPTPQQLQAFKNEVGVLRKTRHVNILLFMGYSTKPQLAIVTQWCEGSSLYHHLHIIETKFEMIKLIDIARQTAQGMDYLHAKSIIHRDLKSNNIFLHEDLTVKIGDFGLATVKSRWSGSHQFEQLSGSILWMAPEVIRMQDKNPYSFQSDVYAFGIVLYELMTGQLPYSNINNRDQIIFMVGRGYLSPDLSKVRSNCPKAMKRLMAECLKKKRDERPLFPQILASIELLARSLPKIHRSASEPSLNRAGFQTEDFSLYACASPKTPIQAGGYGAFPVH
Chain of MRCKa (Q5VT25 whole entry): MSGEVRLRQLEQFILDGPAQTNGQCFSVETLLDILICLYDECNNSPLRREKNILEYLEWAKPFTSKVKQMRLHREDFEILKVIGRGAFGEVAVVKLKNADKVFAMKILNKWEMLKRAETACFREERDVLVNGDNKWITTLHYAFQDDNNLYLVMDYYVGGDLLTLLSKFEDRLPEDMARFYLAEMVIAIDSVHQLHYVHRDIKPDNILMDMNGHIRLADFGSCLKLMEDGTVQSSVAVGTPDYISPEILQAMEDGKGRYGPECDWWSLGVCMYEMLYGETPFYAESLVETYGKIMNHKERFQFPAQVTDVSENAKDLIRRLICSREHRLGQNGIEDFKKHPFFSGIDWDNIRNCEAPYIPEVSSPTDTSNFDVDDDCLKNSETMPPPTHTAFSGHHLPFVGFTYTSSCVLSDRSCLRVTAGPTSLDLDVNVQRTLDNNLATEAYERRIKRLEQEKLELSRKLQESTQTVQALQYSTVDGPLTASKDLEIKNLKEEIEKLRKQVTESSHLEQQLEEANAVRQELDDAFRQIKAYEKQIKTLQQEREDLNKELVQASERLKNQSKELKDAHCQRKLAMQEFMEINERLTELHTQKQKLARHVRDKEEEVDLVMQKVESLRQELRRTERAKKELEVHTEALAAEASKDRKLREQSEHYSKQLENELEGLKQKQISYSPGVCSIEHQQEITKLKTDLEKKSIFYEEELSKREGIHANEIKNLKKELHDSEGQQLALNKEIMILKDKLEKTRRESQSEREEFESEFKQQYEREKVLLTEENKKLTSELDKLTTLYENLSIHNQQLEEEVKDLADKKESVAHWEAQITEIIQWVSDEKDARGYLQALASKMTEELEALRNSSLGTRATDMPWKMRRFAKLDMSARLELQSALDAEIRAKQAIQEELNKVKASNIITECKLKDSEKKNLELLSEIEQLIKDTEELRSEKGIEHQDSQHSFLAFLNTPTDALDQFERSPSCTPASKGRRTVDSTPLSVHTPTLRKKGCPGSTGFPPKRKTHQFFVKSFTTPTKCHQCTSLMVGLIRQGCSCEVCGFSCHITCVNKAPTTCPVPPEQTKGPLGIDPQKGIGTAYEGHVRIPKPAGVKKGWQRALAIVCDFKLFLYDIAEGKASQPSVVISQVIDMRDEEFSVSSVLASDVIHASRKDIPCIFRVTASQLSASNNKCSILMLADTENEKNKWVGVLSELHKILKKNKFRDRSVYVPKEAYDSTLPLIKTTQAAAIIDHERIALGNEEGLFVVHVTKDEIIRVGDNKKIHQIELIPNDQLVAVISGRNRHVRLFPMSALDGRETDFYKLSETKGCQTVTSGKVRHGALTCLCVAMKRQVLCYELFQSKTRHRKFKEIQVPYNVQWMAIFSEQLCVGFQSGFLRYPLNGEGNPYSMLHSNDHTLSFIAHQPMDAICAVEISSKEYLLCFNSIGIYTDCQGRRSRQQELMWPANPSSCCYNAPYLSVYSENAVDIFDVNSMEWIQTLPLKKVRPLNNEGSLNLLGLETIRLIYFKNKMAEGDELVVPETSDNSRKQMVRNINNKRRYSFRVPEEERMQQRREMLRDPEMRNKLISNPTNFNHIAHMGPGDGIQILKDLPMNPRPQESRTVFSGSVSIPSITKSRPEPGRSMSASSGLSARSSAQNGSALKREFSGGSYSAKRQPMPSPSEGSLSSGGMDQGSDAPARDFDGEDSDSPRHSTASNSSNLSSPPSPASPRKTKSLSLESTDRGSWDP
Chain of CaMK2d (Q13557 whole entry): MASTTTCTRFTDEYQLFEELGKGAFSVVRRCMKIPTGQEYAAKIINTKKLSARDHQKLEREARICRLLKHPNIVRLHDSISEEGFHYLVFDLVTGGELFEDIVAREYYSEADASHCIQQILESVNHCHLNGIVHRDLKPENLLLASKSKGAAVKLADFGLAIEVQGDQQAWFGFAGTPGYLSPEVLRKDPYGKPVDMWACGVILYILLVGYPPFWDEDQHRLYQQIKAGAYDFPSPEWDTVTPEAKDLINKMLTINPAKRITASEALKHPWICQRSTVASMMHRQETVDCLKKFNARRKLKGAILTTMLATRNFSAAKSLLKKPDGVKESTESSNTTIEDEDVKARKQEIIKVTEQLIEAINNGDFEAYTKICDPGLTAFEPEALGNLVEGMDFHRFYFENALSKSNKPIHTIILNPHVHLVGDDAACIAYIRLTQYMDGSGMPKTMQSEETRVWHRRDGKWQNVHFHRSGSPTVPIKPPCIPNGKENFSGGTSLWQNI
Chain of DAPK3 (O43293 whole entry): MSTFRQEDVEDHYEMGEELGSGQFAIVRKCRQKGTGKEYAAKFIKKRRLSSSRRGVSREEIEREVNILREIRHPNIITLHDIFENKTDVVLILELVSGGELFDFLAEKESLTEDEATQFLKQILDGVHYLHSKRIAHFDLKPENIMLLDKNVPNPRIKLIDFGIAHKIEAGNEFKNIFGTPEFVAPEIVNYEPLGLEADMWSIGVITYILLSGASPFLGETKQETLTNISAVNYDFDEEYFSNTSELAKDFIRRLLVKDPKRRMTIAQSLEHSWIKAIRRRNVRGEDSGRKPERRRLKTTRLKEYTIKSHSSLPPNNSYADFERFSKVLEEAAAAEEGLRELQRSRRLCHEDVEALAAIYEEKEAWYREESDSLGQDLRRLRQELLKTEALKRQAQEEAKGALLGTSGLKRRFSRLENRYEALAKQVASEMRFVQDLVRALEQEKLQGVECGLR

ΔTm 32 [1]: 6.6 °C
ΔTm 32 [2]: 5.7 °C
ΔTm 32 [3]: 0.0 °C
ΔTm 32 [4]: -0.3 °C
ΔTm 32 [5]: 0.0 °C
ΔTm 32 [6]: 2.6 °C
ΔTm 32 [7]: 4.2 °C
ΔTm 32 [8]: 2.6 °C
ΔTm 32 [9]: -0.2 °C
ΔTm 32 [10]: 10.8 °C
ΔTm 32 [11]: 4.0 °C
ΔTm 32 [12]: 4.8 °C
Compound: Cc1cccc(-c2ccc(-c3cc4cnc(Nc5ccc(C)c(O)c5)nc4n(CCCCN)c3=O)c(Cl)c2)n1 [compound 32, 8-(4-Aminobutyl)-6-(2-chloro-4-(6-methylpyridin-2-yl)phenyl)-2-((3-hydroxy-4-methylphenyl)amino)pyrido[2,3-d]pyrimidin-7(8H)-one]

ΔTm 31 [1]: 6.5 °C
ΔTm 31 [2]: 5.0 °C
ΔTm 31 [3]: -0.2 °C
ΔTm 31 [4]: 0.0 °C
ΔTm 31 [5]: -0.1 °C
ΔTm 31 [6]: 2.0 °C
ΔTm 31 [7]: 3.9 °C
ΔTm 31 [8]: 2.6 °C
ΔTm 31 [9]: -0.4 °C
ΔTm 31 [10]: 10.8 °C
ΔTm 31 [11]: 3.3 °C
ΔTm 31 [12]: 5.0 °C
Compound: Cc1cccc(-c2ccc(-c3cc4cnc(Nc5ccc(O)cc5)nc4n(CCCCN)c3=O)c(Cl)c2)n1 [compound 31, 8-(4-Aminobutyl)-6-(2-chloro-4-(6-methylpyridin-2-yl)phenyl)-2-((4-hydroxyphenyl)amino) pyrido[2,3-d]pyrimidin-7(8H)-one]

The next lines start with the compound.

Compound: Cc1cccc(-c2ccc(-c3cc4cnc(NCCCN5CCCC5=O)nc4n(CCCCN)c3=O)c(Cl)c2)n1 [compound 27, MR30]
ΔTm MR30 (27) [1]: 0.4 °C
ΔTm MR30 (27) [2]: 2.6 °C
ΔTm MR30 (27) [3]: -0.3 °C
ΔTm MR30 (27) [4]: -0.4 °C
ΔTm MR30 (27) [5]: -0.5 °C
ΔTm MR30 (27) [6]: 0.6 °C
ΔTm MR30 (27) [7]: 1.0 °C
ΔTm MR30 (27) [8]: 0.0 °C
ΔTm MR30 (27) [9]: -0.6 °C
ΔTm MR30 (27) [10]: 5.2 °C
ΔTm MR30 (27) [11]: -0.2 °C
ΔTm MR30 (27) [12]: 2.9 °C

Compound: Cc1cccc(-c2ccc(-c3cc4cnc(Nc5cc(C(F)(F)F)ccc5C)nc4n(CCCCN)c3=O)c(Cl)c2)n1 [compound 28, 8-(4-Aminobutyl)-6-(2-chloro-4-(6-methylpyridin-2-yl)phenyl)-2-((2-methyl-5-(trifluoromethyl)phenyl)amino)pyrido[2,3-d]pyrimidin-7(8H)-one]
ΔTm 28 [1]: 0.3 °C
ΔTm 28 [2]: 3.2 °C
ΔTm 28 [3]: 0.0 °C
ΔTm 28 [4]: -0.6 °C
ΔTm 28 [5]: -0.4 °C
ΔTm 28 [6]: 1.0 °C
ΔTm 28 [7]: 3.8 °C
ΔTm 28 [8]: -0.5 °C
ΔTm 28 [9]: -0.7 °C
ΔTm 28 [10]: 11.0 °C
ΔTm 28 [11]: -1.0 °C
ΔTm 28 [12]: 1.1 °C

Compound: Cc1cccc(-c2ccc(-c3cc4cnc(Nc5ccc(CCCO)cc5)nc4n(CCCCN)c3=O)c(Cl)c2)n1 [compound 30, 8-(4-Aminobutyl)-6-(2-chloro-4-(6-methylpyridin-2-yl)phenyl)-2-((4-(3-hydroxypropyl)phenyl)amino)pyrido[2,3-d]pyrimidin-7(8H)-one]
ΔTm 30 [1]: 6.4 °C
ΔTm 30 [2]: 6.2 °C
ΔTm 30 [3]: -0.5 °C
ΔTm 30 [4]: -1.1 °C
ΔTm 30 [5]: 0.1 °C
ΔTm 30 [6]: 2.9 °C
ΔTm 30 [7]: 3.9 °C
ΔTm 30 [8]: 2.6 °C
ΔTm 30 [9]: -0.4 °C
ΔTm 30 [10]: 9.7 °C
ΔTm 30 [11]: 4.4 °C
ΔTm 30 [12]: 5.0 °C

Compound: Cc1cccc(-c2ccc(-c3cc4cnc(NCCCN5CCNCC5)nc4n(CCCCN)c3=O)c(Cl)c2)n1 [compound 29, 8-(4-Aminobutyl)-6-(2-chloro-4-(6-methylpyridin-2-yl)phenyl)-2-((3-(piperazin-1-yl)propyl)amino)pyrido[2,3-d]pyrimidin-7(8H)-one]
ΔTm 29 [1]: 0.7 °C
ΔTm 29 [2]: 1.5 °C
ΔTm 29 [3]: -0.5 °C
ΔTm 29 [4]: -0.2 °C
ΔTm 29 [5]: -0.1 °C
ΔTm 29 [6]: 0.0 °C
ΔTm 29 [7]: 1.7 °C
ΔTm 29 [8]: 0.6 °C
ΔTm 29 [9]: -0.4 °C
ΔTm 29 [10]: 3.5 °C
ΔTm 29 [11]: -0.3 °C
ΔTm 29 [12]: 2.5 °C

From doi:10.1101/2023.11.24.568596v1 (biorxiv, 2023)
